Experimental data reported in patent US20230090255A1, “MAGL INHIBITOR, PREPARATION METHOD THEREFOR AND USE THEREOF” (LUNAN PHARMACEUTICAL GROUP CORPORATION, priority 2019, published 2023).

Tests used:
[1] = test system: mice pain response induced by hot plate; experiment: Mice pain response induced by hot plate; format: in vivo, ICR mice; conditions: for Pain threshold: hot plate 55°C
Method in brief: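 Female ICR mice (20±2 g) dosed intragastrically for 7 consecutive days. Latency to hind-paw licking on a 55±0.5° C hot plate measured at 30, 60, 90 and 120 min after the last dose, with a 60 s cap. Mice with baseline latency <5 s or >30 s, or jumping, excluded.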

[2] = test system: reserpine-induced mice migraine; experiment: Reserpine-induced mice migraine; format: in vivo, ICR mice; conditions: for Blood coagulation time: reserpine 0.2 mg/kg sc mice, 1 h after final administration; for brain tissue 5-HT / Times of tail suspension (struggling times within 2 min): reserpine mice; for Times of tail suspension (struggling times within 2 min): 9th day
[3] = test system: mice with inflammatory pain; experiment: Pain threshold of mice with inflammatory pain (complete Freund's adjuvant); format: in vivo, SD mice; conditions: for Pain threshold: complete Freund's adjuvant paw model
[4] = test system: mice writhing caused by acetic acid; experiment: Mice writhing caused by acetic acid; conditions: for Writhing times: 1 h before 0.7% acetic acid ip, within 20 min; for Latent time: time to first writhing; for Inhibition ratio: writhing inhibition
Method: Each compound was prepared into a suspension by 0.5% sodium carboxymethylcellulose respectively, and then set according to the dose, and each administration group was administered intragastrically; the model group was administered intragastrically an equal volume of 0.5% sodium carboxymethylcellulose.
Mice were intraperitoneally injected with acetic acid to cause a large area and more lasting painful stimuli in deep enterocoelia, causing mice to produce writhing responses. After being administered for 1 h, each dose group was intraperitoneally injected with 0.7% acetic acid-normal saline solution (0.1 ml/10 g).
The time (pain latent time) that the mice started to appear writhing after being intraperitoneally injected with acetic acid was recorded.
The writhing response times of each mouse within 20 min were recorded after injecting acetic acid to cause pain, and then, the writhing inhibition ratio of each administration group was calculated.
Writhing inhibition ratio = [(writhing times of the control group -writhing times of the administration group)/writhing times of the control group] × 100%
Experimental data is shown by x±s and subjected to variance analysis by SPSS 15.0 software.

Which results are given for `O=C(Nc1cccc(Cl)c1)C1CCN(C(=O)c2cc3ccccc3[nH]2)CC1` [MAGLZ-II-18]?
pain thresholds of the thermal-stimulus mice, in words ([1]; compared with the model group): significantly extend; Pain threshold ([1]; high dose 30 mg/kg ig 7 d, 30 min after final administration): 26.73 ± 7.37 s; Pain threshold ([1]; high dose 30 mg/kg ig 7 d, 60 min): 27.22 ± 7.29 s; Pain threshold ([1]; high dose 30 mg/kg ig 7 d, 90 min): 27.86 ± 7.93 s; Pain threshold ([1]; high dose 30 mg/kg ig 7 d, 120 min): 27.62 ± 10.01 s; Pain threshold ([1]; low dose 7.5 mg/kg ig 7 d, 30 min after final administration): 26.33 ± 7.52 s; Pain threshold ([1]; low dose 7.5 mg/kg ig 7 d, 60 min): 26.74 ± 7.05 s; Pain threshold ([1]; low dose 7.5 mg/kg ig 7 d, 90 min): 27.16 ± 7.32 s; Pain threshold ([1]; low dose 7.5 mg/kg ig 7 d, 120 min): 26.64 ± 10.03 s; Pain threshold ([1]; middle dose 15 mg/kg ig 7 d, 30 min after final administration): 26.41 ± 7.53 s; Pain threshold ([1]; middle dose 15 mg/kg ig 7 d, 60 min): 27.09 ± 7.53 s; Pain threshold ([1]; middle dose 15 mg/kg ig 7 d, 90 min): 27.58 ± 7.71 s; Pain threshold ([1]; middle dose 15 mg/kg ig 7 d, 120 min): 27.38 ± 9.97 s; blood coagulation time, in words ([2]; compared with the model group): significantly extend; level of 5-HT in the brain tissue, in words ([2]; compared with the model group): significantly increase; times of the tail suspension activity, in words ([2]; compared with the model group): significantly increase; Blood coagulation time ([2]; high dose 30 mg/kg ig 10 d): 241.5 ± 41.63 S; Blood coagulation time ([2]; low dose 7.5 mg/kg ig 10 d): 186.5±51.71 S; Blood coagulation time ([2]; middle dose 15 mg/kg ig 10 d): 212.63±46.02 S; brain tissue 5-HT ([2]; high dose 30 mg/kg ig 10 d): 2.08 ± 0.59 nmol/g; Times of tail suspension (struggling times within 2 min) ([2]; high dose 30 mg/kg ig): 16.51±4.38; brain tissue 5-HT ([2]; low dose 7.5 mg/kg ig 10 d): 1.13 ± 0.45 nmol/g; Times of tail suspension (struggling times within 2 min) ([2]; low dose 7.5 mg/kg ig): 11.88±4.02; brain tissue 5-HT ([2]; middle dose 15 mg/kg ig 10 d): 1.54 ± 0.54 nmol/g; Times of tail suspension (struggling times within 2 min) ([2]; middle dose 15 mg/kg ig): 13.75±4.56; pain threshold of the mice with inflammatory pain, in words ([3]; compared with the model group): significantly extend; Pain threshold ([3]; high dose 30 mg/kg ig once per day, 0 d): 12.85±2.26^∗∗ s; Pain threshold ([3]; high dose 30 mg/kg ig once per day, 1 d): 6.95±0.85^∗∗ s; Pain threshold ([3]; high dose 30 mg/kg ig once per day, 3 d): 8.49±1.15^∗∗ s; Pain threshold ([3]; high dose 30 mg/kg ig once per day, 7 d): 9.62±0.93^∗∗ s; Pain threshold ([3]; low dose 7.5 mg/kg ig once per day, 0 d): 12.73±2.43^∗ s; Pain threshold ([3]; low dose 7.5 mg/kg ig once per day, 1 d): 6.39±0.91^∗ s; Pain threshold ([3]; low dose 7.5 mg/kg ig once per day, 3 d): 8.12±1.29^∗ s; Pain threshold ([3]; low dose 7.5 mg/kg ig once per day, 7 d): 9.16±1.17^∗ s; Pain threshold ([3]; middle dose 15 mg/kg ig once per day, 0 d): 12.86±2.25^∗∗ s; Pain threshold ([3]; middle dose 15 mg/kg ig once per day, 1 d): 6.62±0.69^∗∗ s; Pain threshold ([3]; middle dose 15 mg/kg ig once per day, 3 d): 8.24±0.73^∗∗ s; Pain threshold ([3]; middle dose 15 mg/kg ig once per day, 7 d): 9.51±1.15^∗∗ s; Writhing times ([4]; high dose 30 mg/kg ig): 15.8±15.3; Latent time ([4]; high dose 30 mg/kg ig): 410.9 ± 186.5 s; Inhibition ratio ([4]; high dose 30 mg/kg ig): 59.8%; Writhing times ([4]; low dose 7.5 mg/kg ig): 25.0±13.5; Latent time ([4]; low dose 7.5 mg/kg ig): 318.7 ± 120.2 s; Inhibition ratio ([4]; low dose 7.5 mg/kg ig): 36.4%; Writhing times ([4]; middle dose 15 mg/kg ig): 21.8±12.4; Latent time ([4]; middle dose 15 mg/kg ig): 381.4 ± 127.1 s; Inhibition ratio ([4]; middle dose 15 mg/kg ig): 44.5%
